In patent US11337976B2 (Plexxikon Inc., priority 2011, dated 2022):

Test system: A375 melanoma cells (B-Raf V600E mutation)
Assay: A375 (A375_P-ERK) cell activity / cell growth inhibition assay
Assay type: cell-based, human
Details: Homo sapiens, A-375; A375 cells (text: A375_P-ERK)
Description: Compounds are assessed in a variety of cell based assays. For example human cell lines with B-RafV600E mutation (A375 melanoma, SKMEL3 melanoma, and COLO205 colon adenocarcinoma), as well as tumorigenic cell lines with wild-type B-RAF (SW620 colon adenocarcinoma) or with Ras mutations (SKMEL2 melanoma and IPC298 melanoma).
On day 1, cells are counted, then centrifuged in a conical tube for 5 minutes at 1000 rpm.
On day 2, compound at a maximum concentration of 5 mM is serially diluted 1:3 (e.g. 10 μL with 30 μL dimethyl sulfoxide) for a total of 8 point titration with DMSO as a control. A 1 μL aliquot of each dilution point and control is added to 249 μL growth media and 50 μL is added to a well containing cells, providing 10 μM compound at the maximum concentration point. The cells are incubated for 3 days at 37° C. in 5% CO2.
ATPlite is added 25 μL to each well, shake for 2 minutes, and the cells are incubated at room temperature for 10 minutes, then luminescence is read on Safire reader. The measured luminescence correlates directly with cell number, such that the reading as a function of compound concentration is used to determine the IC50 value.

| Structure (SMILES) | IC50 [µM] |
| --- | --- |
| CCN(C)S(=O)(=O)Nc1cccc(C(=O)c2c[nH]c3ncc(-c4cnc(C(C)C)nc4)cc23)c1F [P-0057, 3-[3-[[ethyl(methyl)sulfamoyl]amino]-2-fluoro-benzoyl]-5-(2-isopropylpyrimidin-5-yl)-1H-pyrrolo[2,3-b]pyridine] | < 1 |
| CCN(C)S(=O)(=O)Nc1cccc(C(=O)c2c[nH]c3ncc(-c4cnc(C5CC5)nc4)cc23)c1F [P-0058] | < 1 |
| CN(C)S(=O)(=O)Nc1cccc(C(=O)c2c[nH]c3ncc(-c4cnc(NC5CC5)nc4)cc23)c1F [P-0064, 5-[2-(cyclopropylamino)pyrimidin-5-yl]-3-[3-(dimethylsulfamoylamino)-2-fluoro-benzoyl]-1H-pyrrolo[2,3-b]pyridine] | < 1 |
| CC(C)CN(C)S(=O)(=O)Nc1cccc(C(=O)c2c[nH]c3ncc(I)cc23)c1F [P-0070, 3-[2-fluoro-3-[[isobutyl(methyl)sulfamoyl]amino]benzoyl]-5-iodo-1H-pyrrolo[2,3-b]pyridine] | < 1 |
| COc1ncc(-c2cnc3[nH]cc(C(=O)c4cccc(NS(=O)(=O)N5CCCC5C)c4F)c3c2)cn1 (stereo not drawn) [P-0074, N-[2-fluoro-3-[5-(2-methoxypyrimidin-5-yl)-1H-pyrrolo[2,3-b]pyridine-3-carbonyl]phenyl]-2-methyl-pyrrolidine-1-sulfonamide] | < 1 |
| CCCN(C)S(=O)(=O)Nc1ccc(F)c(C(=O)c2c[nH]c3ncc(-c4cnc(C5CC5)nc4)cc23)c1F [P-0078, 5-(2-cyclopropylpyrimidin-5-yl)-3-[2,6-difluoro-3-[[methyl(propyl)sulfamoyl]amino]benzoyl]-1H-pyrrolo[2,3-b]pyridine] | < 1 |
| COCCN(C)S(=O)(=O)Nc1cccc(C(=O)c2c[nH]c3ncc(-c4ccc(C5(C#N)CC5)cc4)cc23)c1F [P-0080, 5-[4-(1-cyanocyclopropyl)phenyl]-3-[2-fluoro-3-[[2-methoxyethyl(methyl)sulfamoyl]amino]benzoyl]-1H-pyrrolo[2,3-b]pyridine] | < 1 |
| COCCN(C)S(=O)(=O)Nc1cccc(C(=O)c2c[nH]c3ncc(-c4cnc(NC5CC5)nc4)cc23)c1F [P-0081, 5-[2-(cyclopropylamino)pyrimidin-5-yl]-3-[2-fluoro-3-[[2-methoxyethyl(methyl)sulfamoyl]amino]benzoyl]-1H-pyrrolo[2,3-b]pyridine] | < 1 |
| CN(CC1CC1)S(=O)(=O)Nc1cccc(C(=O)c2c[nH]c3ncc(-c4cnc(C5CC5)nc4)cc23)c1F [P-0084, 3-[3-[[cyclopropylmethyl(methyl)sulfamoyl]amino]-2-fluoro-benzoyl]-5-(2-cyclopropylpyrimidin-5-yl)-1H-pyrrolo[2,3-b]pyridine] | < 1 |
| CCN(C)S(=O)(=O)Nc1cccc(C(=O)c2c[nH]c3ncnc(N[C@@H](C)C4CC4)c23)c1F [P-0089, 4-[[(1 S)-1-cyclopropylethyl]amino]-5-[3-[[ethyl(methyl)sulfamoyl]amino]-2-fluoro-benzoyl]-7H-pyrrolo[2,3-d]pyrimidine] | < 1 |
| Cc1ncc(-c2cnc3[nH]cc(C(=O)c4cccc(NS(=O)(=O)N5CCCC5)c4F)c3c2)cn1 [P-0092, N-[2-fluoro-3-[5-(2-methylpyrimidin-5-yl)-1H-pyrrolo[2,3-b]pyridine-3-carbonyl]phenyl]pyrrolidine-1-sulfonamide] | < 1 |

Second part, the molecule after the results:

| IC50 [µM] | Structure (SMILES) |
| --- | --- |
| < 1 | CCN(C)S(=O)(=O)Nc1cccc(C(=O)c2c[nH]c3ncc(-c4ccc(C(F)(F)F)nc4)cc23)c1F [P-0059, 3-[3-[[ethyl(methyl)sulfamoyl]amino]-2-fluoro-benzoyl]-5-[6-(trifluoromethyl)-3-pyridyl]-1H-pyrrolo[2,3-b]pyridine] |
| < 1 | CCN(C)S(=O)(=O)Nc1cccc(C(=O)c2c[nH]c3ncc(-c4ccc(C#N)c(OC)c4)cc23)c1F [P-0060, 5-(4-cyano-3-methoxy-phenyl)-3-[3-[[ethyl(methyl)sulfamoyl]amino]-2-fluoro-benzoyl]-1H-pyrrolo[2,3-b]pyridine] |
| < 1 | O=C(c1cccc(NS(=O)(=O)N2CCCC2)c1F)c1c[nH]c2ncc(-c3ccc(F)cc3)cc12 [P-0062, N-[2-fluoro-3-[5-(4-fluorophenyl)-1H-pyrrolo[2,3-b]pyridine-3-carbonyl]phenyl]pyrrolidine-1-sulfonamide] |
| < 1 | O=C(c1cccc(NS(=O)(=O)N2CCCC2)c1F)c1c[nH]c2ncc(-c3ccccc3)cc12 [P-0063, N-[2-fluoro-3-(5-phenyl-1H-pyrrolo[2,3-b]pyridine-3-carbonyl)phenyl]pyrrolidine-1-sulfonamide] |
| < 1 | COCCS(=O)(=O)Nc1cccc(C(=O)c2c[nH]c3ncc(-c4cnc(OC)nc4)cc23)c1F [P-0065, N-[2-fluoro-3-[5-(2-methoxypyrimidin-5-yl)-1H-pyrrolo[2,3-b]pyridine-3-carbonyl]phenyl]-2-methoxy-ethane sulfonamide] |
| < 1 | CC(C)NS(=O)(=O)Nc1cccc(C(=O)c2c[nH]c3ncc(I)cc23)c1F [P-0071, [2-fluoro-3-(isopropylsulfamoylamino)phenyl]-(5-iodo-1H-pyrrolo[2,3-b]pyridin-3-yl)methanone] |
| < 1 | COc1ncc(-c2cnc3[nH]cc(C(=O)c4cccc(NS(=O)(=O)N(C)CC(C)C)c4F)c3c2)cn1 [P-0072, 3-[2-fluoro-3-[[isobutyl(methyl)sulfamoyl]amino]benzoyl]-5-(2-methoxypyrimidin-5-yl)-1H-pyrrolo[2,3-b]pyridine] |
| < 1 | COCCN(C)S(=O)(=O)Nc1cccc(C(=O)c2c[nH]c3ncc(-c4cnc(OC)nc4)cc23)c1F [P-0073, 3-[2-fluoro-3-[[2-methoxyethyl(methyl)sulfamoyl]amino]benzoyl]-5-(2-methoxypyrimidin-5-yl)-1H-pyrrolo[2,3-b]pyridine] |
| < 1 | CCN(C)S(=O)(=O)Nc1cccc(C(=O)c2c[nH]c3ncc(-c4ccc(N(C)C)nc4)cc23)c1F [P-0076, 5-[6-(dimethylamino)-3-pyridyl]-3-[3-[[ethyl(methyl)sulfamoyl]amino]-2-fluoro-benzoyl]-1H-pyrrolo[2,3-b]pyridine] |
| < 1 | CCN(C)S(=O)(=O)Nc1cccc(C(=O)c2c[nH]c3ncc(-c4cnc(NC5CC5)nc4)cc23)c1F [P-0077, 5-[2-(cyclopropylamino)pyrimidin-5-yl]-3-[3-[[ethyl(methyl)sulfamoyl]amino]-2-fluoro-benzoyl]-1H-pyrrolo[2,3-b]pyridine] |
| < 1 | COCCN(C)S(=O)(=O)Nc1cccc(C(=O)c2c[nH]c3ncc(-c4cnc(C5CC5)nc4)cc23)c1F [P-0085, 5-(2-cyclopropylpyrimidin-5-yl)-3-[2-fluoro-3-[[2-methoxyethyl(methyl)sulfamoyl]amino]benzoyl]-1H-pyrrolo[2,3-b]pyridine] |
| < 1 | COc1ncc(-c2cnc3[nH]cc(C(=O)c4cccc(NS(=O)(=O)N5CC(F)(F)C5)c4F)c3c2)cn1 [P-0088, 3,3-difluoro-N-[2-fluoro-3-[5-(2-methoxypyrimidin-5-yl)-1H-pyrrolo[2,3-b]pyridine-3-carbonyl]phenyl]azetidine-1-sulfonamide] |
| < 1 | N#Cc1ccc(-c2cnc3[nH]cc(C(=O)c4cccc(NS(=O)(=O)N5CCCC5)c4F)c3c2)cc1 [P-0090, N-[3-[5-(4-cyanophenyl)-1H-pyrrolo[2,3-b]pyridine-3-carbonyl]-2-fluoro-phenyl]pyrrolidine-1-sulfonamide] |
